Assay results published in ChEMBL document CHEMBL2034905, “Synthesis of benzimidazolyl-1,3,4-oxadiazol-2ylthio-N-phenyl (benzothiazolyl) acetamides as antibacterial, antifungal and antituberculosis agents” (Eur J Med Chem, 2012).
Converted amounts (≈) assume the structure as drawn.

Experiments:
[1] = system: Pseudomonas aeruginosa; assay: Antibacterial activity against Pseudomonas aeruginosa MTCC 741 by agar streak dilution method; format: functional
[2] = system: Mycobacterium tuberculosis; assay: Antituberculosis activity against Mycobacterium tuberculosis H37Rv by BACTEC MGIT method; format: functional
[3] = system: Shigella flexneri; assay: Antibacterial activity against Shigella flexneri MTCC 1457 at 100 ug/disc by paper disc diffusion technique; format: functional; conditions: read-out: IZ
[4] = system: Bacillus cereus; assay: Antibacterial activity against Bacillus cereus MTCC 430 by agar streak dilution method; format: functional
[5] = system: Escherichia coli; assay: Antibacterial activity against Escherichia coli MTCC 739 at 100 ug/disc by paper disc diffusion technique; format: functional; conditions: read-out: IZ
[6] = system: Bacillus cereus; assay: Antibacterial activity against Bacillus cereus MTCC 430 at 100 ug/disc by paper disc diffusion technique; format: functional; conditions: read-out: IZ
[7] = system: Klebsiella pneumoniae; assay: Antibacterial activity against Klebsiella pneumoniae MTCC 109 by agar streak dilution method; format: functional
[8] = system: Escherichia coli; assay: Antibacterial activity against Escherichia coli MTCC 739 by agar streak dilution method; format: functional
[9] = system: Klebsiella pneumoniae; assay: Antibacterial activity against Klebsiella pneumoniae MTCC 109 at 100 ug/disc by paper disc diffusion technique; format: functional; conditions: read-out: IZ
[10] = system: Proteus vulgaris; assay: Antibacterial activity against Proteus vulgaris MTCC 1771 by agar streak dilution method; format: functional
[11] = system: Aspergillus clavatus; assay: Antifungal activity against Aspergillus clavatus MTCC 1323 by agar streak dilution method; format: functional
[12] = system: Aspergillus niger; assay: Antifungal activity against Aspergillus niger MTCC 282 at 100 ug/disc by paper disc diffusion technique; format: functional; conditions: read-out: IZ
[13] = system: Aspergillus fumigatus; assay: Antifungal activity against Aspergillus fumigatus MTCC 343 by agar streak dilution method; format: functional
[14] = system: Staphylococcus aureus; assay: Antibacterial activity against Staphylococcus aureus MTCC 96 by agar streak dilution method; format: functional
[15] = system: Mycobacterium tuberculosis; assay: Antituberculosis activity against Mycobacterium tuberculosis H37Rv by Lowenstein-Jensen method; format: functional
[16] = system: Proteus vulgaris; assay: Antibacterial activity against Proteus vulgaris MTCC 1771 at 100 ug/disc by paper disc diffusion technique; format: functional; conditions: read-out: IZ
[17] = system: Salmonella typhi; assay: Antibacterial activity against Salmonella typhi MTCC 733 by agar streak dilution method; format: functional, Salmonella enterica subsp. enterica serovar Typhi; conditions: Salmonella enterica
[18] = system: Aspergillus clavatus; assay: Antifungal activity against Aspergillus clavatus MTCC 1323 at 100 ug/disc by paper disc diffusion technique; format: functional; conditions: read-out: IZ
[19] = system: Aspergillus fumigatus; assay: Antifungal activity against Aspergillus fumigatus MTCC 343 at 100 ug/disc by paper disc diffusion technique; format: functional; conditions: read-out: IZ
[20] = system: Mycobacterium tuberculosis; assay: Antituberculosis activity against Mycobacterium tuberculosis H37Rv at 6.25 ug/ml by Lowenstein-Jensen method; format: functional
[21] = system: Pseudomonas aeruginosa; assay: Antibacterial activity against Pseudomonas aeruginosa MTCC 741 at 100 ug/disc by paper disc diffusion technique; format: functional; conditions: read-out: IZ
[22] = system: Candida albicans; assay: Antifungal activity against Candida albicans MTCC 183 by agar streak dilution method; format: functional
[23] = system: Salmonella typhi; assay: Antibacterial activity against Salmonella typhi MTCC 733 at 100 ug/disc by paper disc diffusion technique; format: functional, Salmonella enterica subsp. enterica serovar Typhi; conditions: Salmonella enterica, read-out: IZ
[24] = system: Staphylococcus aureus; assay: Antibacterial activity against Staphylococcus aureus MTCC 96 at 100 ug/disc by paper disc diffusion technique; format: functional; conditions: read-out: IZ
[25] = system: Shigella flexneri; assay: Antibacterial activity against Shigella flexneri MTCC 1457 by agar streak dilution method; format: functional
[26] = system: Candida albicans; assay: Antifungal activity against Candida albicans MTCC 183 at 100 ug/disc by paper disc diffusion technique; format: functional; conditions: read-out: IZ
[27] = system: Aspergillus niger; assay: Antifungal activity against Aspergillus niger MTCC 282 by agar streak dilution method; format: functional

O=C(CSc1nnc(Cn2cnc3ccccc32)o1)Nc1ccc([N+](=O)[O-])cc1
MIC [1]: 50 mg/L (≈ 122 µM)
MIC [2]: > 6.25 mg/L
zone of inhibition at 100 µg/disc [3]: 19 mm
MIC [4]: 100 mg/L (≈ 244 µM)
zone of inhibition at 100 µg/disc [5]: 12 mm
zone of inhibition at 100 µg/disc [6]: 13 mm
MIC [7]: 100 mg/L (≈ 244 µM)
MIC [8]: 100 mg/L (≈ 244 µM)
zone of inhibition at 100 µg/disc [9]: 20 mm
MIC [10]: 100 mg/L (≈ 244 µM)
MIC [11]: 50 mg/L (≈ 122 µM)
zone of inhibition at 100 µg/disc [12]: 18 mm
MIC [13]: 100 mg/L (≈ 244 µM)
MIC [14]: 12.5 mg/L (≈ 30.5 µM)
MIC [15]: 100 mg/L (≈ 244 µM)
zone of inhibition at 100 µg/disc [16]: 14 mm
MIC [17]: 100 mg/L (≈ 244 µM)
zone of inhibition at 100 µg/disc [18]: 24 mm
zone of inhibition at 100 µg/disc [19]: 18 mm
inhibition at 6.25 µg/mL [20]: 94%
zone of inhibition at 100 µg/disc [21]: 20 mm
MIC [22]: 100 mg/L (≈ 244 µM)
zone of inhibition at 100 µg/disc [23]: 13 mm
zone of inhibition at 100 µg/disc [24]: 20 mm
MIC [25]: 100 mg/L (≈ 244 µM)
zone of inhibition at 100 µg/disc [26]: 15 mm
MIC [27]: 50 mg/L (≈ 122 µM)

N#Cc1ccc(NC(=O)CSc2nnc(Cn3cnc4ccccc43)o2)cc1
MIC [1]: 50 mg/L (≈ 128 µM)
MIC [2]: > 6.25 mg/L
zone of inhibition at 100 µg/disc [3]: 17 mm
MIC [4]: 50 mg/L (≈ 128 µM)
zone of inhibition at 100 µg/disc [5]: 19 mm
zone of inhibition at 100 µg/disc [6]: 19 mm
MIC [7]: 25 mg/L (≈ 64 µM)
MIC [8]: 50 mg/L (≈ 128 µM)
zone of inhibition at 100 µg/disc [9]: 24 mm
MIC [10]: 50 mg/L (≈ 128 µM)
MIC [11]: 100 mg/L (≈ 256 µM)
zone of inhibition at 100 µg/disc [12]: < 10 mm
MIC [13]: 100 mg/L (≈ 256 µM)
MIC [14]: 25 mg/L (≈ 64 µM)
MIC [15]: 62.5 mg/L (≈ 160 µM)
zone of inhibition at 100 µg/disc [16]: 19 mm
MIC [17]: 50 mg/L (≈ 128 µM)
zone of inhibition at 100 µg/disc [18]: 13 mm
zone of inhibition at 100 µg/disc [19]: 14 mm
inhibition at 6.25 µg/mL [20]: 96%
zone of inhibition at 100 µg/disc [21]: 21 mm
MIC [22]: 100 mg/L (≈ 256 µM)
zone of inhibition at 100 µg/disc [23]: 20 mm
zone of inhibition at 100 µg/disc [24]: 18 mm
MIC [25]: 100 mg/L (≈ 256 µM)
zone of inhibition at 100 µg/disc [26]: 11 mm
MIC [27]: 100 mg/L (≈ 256 µM)

CCOc1ccc(NC(=O)CSc2nnc(Cn3cnc4ccccc43)o2)cc1
MIC [1]: 100 mg/L (≈ 244 µM)
MIC [2]: > 6.25 mg/L
zone of inhibition at 100 µg/disc [3]: 22 mm
MIC [4]: 50 mg/L (≈ 122 µM)
zone of inhibition at 100 µg/disc [5]: 23 mm
zone of inhibition at 100 µg/disc [6]: 18 mm
MIC [7]: 100 mg/L (≈ 244 µM)
MIC [8]: 25 mg/L (≈ 61.1 µM)
zone of inhibition at 100 µg/disc [9]: < 10 mm
MIC [10]: 12.5 mg/L (≈ 30.5 µM)
MIC [11]: 100 mg/L (≈ 244 µM)
zone of inhibition at 100 µg/disc [12]: 17 mm
MIC [13]: 100 mg/L (≈ 244 µM)
MIC [14]: 50 mg/L (≈ 122 µM)
MIC [15]: 50 mg/L (≈ 122 µM)
zone of inhibition at 100 µg/disc [16]: 25 mm
MIC [17]: 50 mg/L (≈ 122 µM)
zone of inhibition at 100 µg/disc [18]: 16 mm
zone of inhibition at 100 µg/disc [19]: 11 mm
inhibition at 6.25 µg/mL [20]: 98%
zone of inhibition at 100 µg/disc [21]: 16 mm
MIC [22]: 25 mg/L (≈ 61.1 µM)
zone of inhibition at 100 µg/disc [23]: 21 mm
zone of inhibition at 100 µg/disc [24]: 14 mm
MIC [25]: 25 mg/L (≈ 61.1 µM)
zone of inhibition at 100 µg/disc [26]: 24 mm
MIC [27]: 50 mg/L (≈ 122 µM)

O=C(O)c1cn(C2CC2)c2cc(N3CCNCC3)c(F)cc2c1=O [CIPROFLOXACIN]
MIC [1]: 0.78 mg/L (≈ 2.35 µM)
zone of inhibition at 100 µg/disc [3]: 32 mm
MIC [4]: 0.39 mg/L (≈ 1.18 µM)
zone of inhibition at 100 µg/disc [5]: 32 mm
zone of inhibition at 100 µg/disc [6]: 31 mm
MIC [7]: 0.78 mg/L (≈ 2.35 µM)
zone of inhibition at 100 µg/disc [9]: 33 mm
MIC [10]: 0.39 mg/L (≈ 1.18 µM)
MIC [14]: 1.56 mg/L (≈ 4.71 µM)
zone of inhibition at 100 µg/disc [16]: 31 mm
MIC [17]: 0.39 mg/L (≈ 1.18 µM)
zone of inhibition at 100 µg/disc [21]: 33 mm
zone of inhibition at 100 µg/disc [23]: 30 mm
zone of inhibition at 100 µg/disc [24]: 30 mm
MIC [25]: 1.56 mg/L (≈ 4.71 µM)

NNC(=O)c1ccncc1 [ISONIAZID]
MIC [2]: 0.2 mg/L (≈ 1.46 µM)

CC(=O)N1CCN(c2ccc(OCC3COC(Cn4ccnc4)(c4ccc(Cl)cc4Cl)O3)cc2)CC1 (stereo not given) [KETOCONAZOLE]
MIC [11]: 0.78 mg/L (≈ 1.47 µM)
zone of inhibition at 100 µg/disc [12]: 30 mm
MIC [13]: 0.78 mg/L (≈ 1.47 µM)
zone of inhibition at 100 µg/disc [18]: 31 mm
zone of inhibition at 100 µg/disc [19]: 29 mm
MIC [22]: 1.56 mg/L (≈ 2.94 µM)
zone of inhibition at 100 µg/disc [26]: 33 mm
MIC [27]: 1.56 mg/L (≈ 2.94 µM)
